Biological target: interaction between p53 and MDM2 proteins (Homo sapiens, UniProt Q00987)
Assay: HTRF assay of inhibition of p53-MDM2 interaction (GST-MDM2 / biotinylated p53 peptide)
Description: The ability of the compounds to inhibit the interaction between p53 and MDM2 proteins was measured by an HTRF (homogeneous time-resolved fluorescence) assay in which recombinant GST-tagged MDM2 binds to a peptide that resembles the MDM2-interacting region of p53. Binding of GST-MDM2 protein and p53-peptide (biotinylated on its N-terminal end) is registered by the FRET (fluorescence resonance energy transfer) between Europium (Eu)-labeled anti-GST antibody and streptavidin-conjugated Allophycocyanin (APC).
Test is performed in black flat-bottom 384-well plates (Costar) in a total volume of 40 uL containing: 90 nM biotinylate peptide, 160 ng/ml GST-MDM2, 20 nM streptavidin-APC (PerkinElmerWallac), 2 nM Eu-labeled anti-GST-antibody (PerkinElmerWallac), 0.2% bovine serum albumin (BSA), 1 mM dithiothreitol (DTT) and 20 mM Tris-borate saline (TBS) buffer as follows: Add 10 uL of GST-MDM2 (640 ng/ml working solution) in reaction buffer to each well. […] Incubate at 37° C. for 1 h. Add 20 uL streptavidin-APC and Eu-anti-GST antibody mixture (6 nM Eu-anti-GST and 60 nM streptavidin-APC working solution) in TBS buffer with 0.2% BSA, shake at room temperature for 30 minutes and read using a TRF-capable plate reader at

Chain of interaction between p53 and MDM2 proteins (Q00987 whole entry): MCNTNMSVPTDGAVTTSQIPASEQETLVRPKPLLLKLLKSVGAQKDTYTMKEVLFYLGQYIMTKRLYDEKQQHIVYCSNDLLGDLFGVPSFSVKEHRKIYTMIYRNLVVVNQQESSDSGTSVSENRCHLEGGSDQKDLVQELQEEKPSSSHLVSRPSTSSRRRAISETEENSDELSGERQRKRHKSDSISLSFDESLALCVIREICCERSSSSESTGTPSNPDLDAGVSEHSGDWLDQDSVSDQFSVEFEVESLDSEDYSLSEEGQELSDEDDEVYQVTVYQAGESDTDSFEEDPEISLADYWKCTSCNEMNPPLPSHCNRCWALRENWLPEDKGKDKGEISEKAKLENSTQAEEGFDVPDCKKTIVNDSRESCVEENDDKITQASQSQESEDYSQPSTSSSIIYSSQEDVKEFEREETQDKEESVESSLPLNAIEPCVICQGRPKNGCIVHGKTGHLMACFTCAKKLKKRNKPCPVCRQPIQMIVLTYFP

| SMILES | IC50 |
| --- | --- |
| COc1cc(N2CN3[C@@H](CC(C)(C)C)[C@@]4(C(=O)N(CO)c5cc(Cl)ccc54)[C@@H](c4cccc(Cl)c4F)[C@@H]3C2=O)ccc1C(=O)O (racemic) [Example 16, Rac 4-((3R,5′S,7′S,7a′R)-6-chloro-7′-(3-chloro-2-fluorophenyl)-1-(hydroxymethyl)-5′-neopentyl-1′,2-dioxo-7′,7a′-dihydrospiro[indoline-3,6′-pyrrolo[1,2-c]imidazole]-2′(1′H,3′H,5′H)-yl)-2-methoxybenzoic acid] | 25 nM |
| COc1cc(N2CN3[C@@H](CC(C)(C)C)[C@@]4(C(=O)Nc5cc(Cl)ccc54)[C@@H](c4cccc(Cl)c4F)[C@@H]3C2=O)ccc1C(=O)O (racemic) [Example 18, Rac 4-((3R,5′S,7′S,7a′R)-6-chloro-7′-(3-chloro-2-fluorophenyl)-5′-neopentyl-1′,2-dioxo-7′,7a′-dihydrospiro[indoline-3,6′-pyrrolo[1,2-c]imidazole]-2′(1′H,3′H,5′H)-yl) 2-methoxybenzoic acid] | 7 nM |
| CC(C)(C)CC1N2CN(CC(=O)O)C(=O)C2C(c2cccc(Cl)c2F)C12C(=O)Nc1cc(Cl)ccc12 (racemic) [Example 37, rac of 2-((3R,5′S,7′S,7a′R)-6-chloro-7′-(3-chloro-2-fluorophenyl)-5′-neopentyl-1′,2-dioxo-7′,7a′-dihydrospiro[indoline-3,6′-pyrrolo[1,2-c]imidazole]-2′(1′H,3′H,5′H)-yl)acetic acid] | 13 nM |
| COc1cc(N2CN3[C@@H](CC(C)(C)C)[C@@]4(C(=O)Nc5cc(Cl)ccc54)[C@@H](c4cccc(Cl)c4F)[C@@H]3C2=O)ccc1C(N)=O (single isomer, unassigned) [Example 25] | 4 nM |
| COc1cc(C(=O)O)ccc1N1CN2[C@@H](CC(C)(C)C)[C@@]3(C(=O)Nc4cc(Cl)ccc43)[C@@H](c3cccc(Cl)c3F)[C@@H]2C1=O [Example 21, chiral 4-((3S,5′R,7′R,7a′S)-6-chloro-7′-(3-chloro-2-fluorophenyl)-5′-neopentyl-1′,2-dioxo-7′,7a′-dihydrospiro[indoline-3,6′-pyrrolo[1,2-c]imidazole]-2′(1′H,3′H,5′H)-yl)-3-methoxybenzoic acid] | 6 nM |
| COc1cc(C(N)=O)ccc1N1CN2[C@@H](CC(C)(C)C)[C@@]3(C(=O)Nc4cc(Cl)ccc43)[C@@H](c3cccc(Cl)c3F)[C@@H]2C1=O [Example 22, chiral 4-((3R,5′S,7′S,7a′R)-6-chloro-7′-(3-chloro-2-fluorophenyl)-5′-neopentyl-1′,2-dioxo-7′,7a′-dihydrospiro[indoline-3,6′-pyrrolo[1,2-c]imidazole]-2′(1′H,3′H,5′H)-yl)-3-methoxybenzamide] | 5 nM |
| CC(C)(C)C[C@H]1N2CN(c3ccc(C(=O)O)cc3)C(=O)[C@@H]2[C@@H](c2cccc(Cl)c2F)[C@@]12C(=O)Nc1cc(Cl)ccc12 [Example 30, chiral 4-((3S,5′R,7′R,7a′S)-6-chloro-7′-(3-chloro-2-fluorophenyl)-5′-neopentyl-1′,2-dioxo-7′,7a′-dihydrospiro[indoline-3,6′-pyrrolo[1,2-c]imidazole]-2′(1′H,3′H,5′H)-yl)benzoic acid] | 128 nM |
| COc1cc(N2CN3[C@@H](CC(C)(C)C)[C@@]4(C(=O)N(CO)c5cc(Cl)ccc54)[C@@H](c4cccc(Cl)c4F)[C@@H]3C2=O)ccc1C(N)=O [Example 31] | 12 nM |
